Data from ChEMBL document CHEMBL1201862, “PubChem BioAssay data set” (2004).
The source made the active and inactive calls.

Legend:
BJ [1] = assay: cells; format: functional, cell-based; conditions: Homo sapiens
BJ [2] = assay: cytotoxicity toward BJ-TERT-LT-ST fibroblasts, dose response, cell-based, RAS-independent, luminescence (AID 1935); format: functional; conditions: Homo sapiens;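 also: BJ fibroblasts immortalized with TERT plus LT and ST oncogenes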
[3] = cytotoxicity in HEK-293T cells, dose response, cytotoxicity control for TCR NF-kB inhibitor project, luminescence, T-cell screen hits (AID 489026); format: functional, cell-based;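 also: cells exposed to compound about 14 hours before the viability readout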
BJ [4] = assay: cytotoxicity toward BJ-TERT fibroblasts, dose response, cell-based, RAS-independent, luminescence (AID 1933); format: functional; conditions: Homo sapiens
[5] = cytotoxicity toward DRD oncogenic fibroblasts, dose response, cell-based, non-viral oncogenic, luminescence (AID 1934); format: functional; conditions: Homo sapiens
J774.A1 = assay: Confirmation of image-based Screening Assay for Inhibitors of Phagocytosis. [Related pubchem assays (depositor defined):AID1029, AID1643]; format: functional, cell-based; conditions: Mus musculus
[6] = target: T1, Neuropeptides B/W receptor type 1 (Homo sapiens, UniProt P48145); assay: Fluorescence-based dose response cell-based high throughput screening assay to identify antagonists of the G-protein coupled receptor 7 (GPR7). [Related pubchem assays: 1952 (Screening assay (GPR7 antagonists).), 1880 (Summary AID.)]; format: functional
T1 sequence (P48145 whole entry): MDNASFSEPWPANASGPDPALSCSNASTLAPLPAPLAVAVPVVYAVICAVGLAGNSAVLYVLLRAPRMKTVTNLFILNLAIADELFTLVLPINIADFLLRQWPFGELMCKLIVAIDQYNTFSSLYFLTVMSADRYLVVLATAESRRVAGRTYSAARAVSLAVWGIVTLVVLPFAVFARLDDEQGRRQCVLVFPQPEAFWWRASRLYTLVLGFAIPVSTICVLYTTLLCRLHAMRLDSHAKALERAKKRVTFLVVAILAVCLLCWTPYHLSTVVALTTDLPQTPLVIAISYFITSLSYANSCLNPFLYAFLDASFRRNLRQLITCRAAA

[7] = target: Heat shock protein HSP 90-alpha (Homo sapiens, UniProt P07900); format: functional, organism-based
[8] = target: Melanin-concentrating hormone receptor 1 (Homo sapiens, UniProt Q99705); assay: Fluorescence-based counterscreen for antagonists of the G-protein coupled receptor 7 (GPR7): cell-based high throughput dose response assay to identify antagonists of the melanin-concentrating hormone receptor 1 (MCHR1).; format: functional
Chain of Melanin-concentrating hormone receptor 1 (Q99705 whole entry): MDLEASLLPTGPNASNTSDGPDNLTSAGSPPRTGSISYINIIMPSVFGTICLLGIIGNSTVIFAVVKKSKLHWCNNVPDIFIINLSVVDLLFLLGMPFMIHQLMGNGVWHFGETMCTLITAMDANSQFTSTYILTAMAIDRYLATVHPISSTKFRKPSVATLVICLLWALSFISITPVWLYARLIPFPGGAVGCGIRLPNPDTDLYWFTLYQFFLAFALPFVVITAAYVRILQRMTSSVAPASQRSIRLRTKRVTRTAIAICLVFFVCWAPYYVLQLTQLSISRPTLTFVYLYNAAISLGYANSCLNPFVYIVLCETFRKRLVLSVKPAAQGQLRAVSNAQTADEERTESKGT

[9] = target: Lysosomal acid glucosylceramidase (Homo sapiens, UniProt P04062); assay: Dose response cell-based high throughput screening assay to identify enhancers of beta-glucosidase activity. [Related pubchem assays: 784 ]; format: functional
Chain of Lysosomal acid glucosylceramidase (P04062 whole entry): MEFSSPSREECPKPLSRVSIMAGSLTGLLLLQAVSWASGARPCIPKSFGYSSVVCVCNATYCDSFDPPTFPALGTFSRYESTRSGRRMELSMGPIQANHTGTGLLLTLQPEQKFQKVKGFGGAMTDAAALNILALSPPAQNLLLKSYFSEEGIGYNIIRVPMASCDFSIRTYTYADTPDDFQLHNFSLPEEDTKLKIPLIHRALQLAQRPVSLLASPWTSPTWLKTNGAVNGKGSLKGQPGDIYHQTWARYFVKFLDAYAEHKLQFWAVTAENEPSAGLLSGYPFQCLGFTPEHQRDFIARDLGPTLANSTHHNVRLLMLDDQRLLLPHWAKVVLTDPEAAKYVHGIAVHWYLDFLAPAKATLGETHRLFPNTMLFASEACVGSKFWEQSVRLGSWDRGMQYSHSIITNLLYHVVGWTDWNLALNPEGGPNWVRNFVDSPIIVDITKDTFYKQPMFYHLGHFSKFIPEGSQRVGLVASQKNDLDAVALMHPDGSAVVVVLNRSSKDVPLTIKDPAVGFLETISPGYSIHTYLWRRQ

[10] = target: Intestinal-type alkaline phosphatase (Homo sapiens, UniProt P09923); assay: Dose Response confirmation of uHTS hits from a small molecule inhibitors of human intestinal alkaline phosphatase via a luminescent assay. [Related pubchem assays (depositor defined):AID2544, AID2574]; format: functional
Chain of Intestinal-type alkaline phosphatase (P09923 whole entry): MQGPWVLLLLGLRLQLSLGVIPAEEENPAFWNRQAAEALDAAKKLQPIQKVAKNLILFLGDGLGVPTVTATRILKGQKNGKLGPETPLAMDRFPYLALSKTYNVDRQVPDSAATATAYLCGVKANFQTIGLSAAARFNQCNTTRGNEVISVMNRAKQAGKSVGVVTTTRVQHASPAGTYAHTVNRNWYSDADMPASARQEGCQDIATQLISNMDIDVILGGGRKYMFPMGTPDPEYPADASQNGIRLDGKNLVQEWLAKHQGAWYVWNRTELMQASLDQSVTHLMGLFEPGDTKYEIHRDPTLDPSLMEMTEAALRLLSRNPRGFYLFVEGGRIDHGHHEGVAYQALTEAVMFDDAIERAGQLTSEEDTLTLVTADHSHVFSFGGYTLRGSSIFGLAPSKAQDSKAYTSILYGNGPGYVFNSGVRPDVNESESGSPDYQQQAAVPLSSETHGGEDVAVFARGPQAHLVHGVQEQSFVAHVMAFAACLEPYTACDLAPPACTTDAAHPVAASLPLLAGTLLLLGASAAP

[11] = C. albicans growth with fluconazole, confirmation, fluorescence, retest (AID 2467); format: functional, cell-based
Saccharomyces cerevisiae = assay: NALP1 inhibitor project selectivity study, Caspase-1/ASC signal blockade IC50 in S. cerevisiae (AID 488863); format: functional, organism-based
[12] = target: NACHT, LRR and PYD domains-containing protein 1 (Homo sapiens, UniProt Q9C000); assay: NALP1 inhibitors in yeast, dose response, luminescent (AID 488860); format: functional
Chain of NACHT, LRR and PYD domains-containing protein 1 (Q9C000 1-1212 limits assumed): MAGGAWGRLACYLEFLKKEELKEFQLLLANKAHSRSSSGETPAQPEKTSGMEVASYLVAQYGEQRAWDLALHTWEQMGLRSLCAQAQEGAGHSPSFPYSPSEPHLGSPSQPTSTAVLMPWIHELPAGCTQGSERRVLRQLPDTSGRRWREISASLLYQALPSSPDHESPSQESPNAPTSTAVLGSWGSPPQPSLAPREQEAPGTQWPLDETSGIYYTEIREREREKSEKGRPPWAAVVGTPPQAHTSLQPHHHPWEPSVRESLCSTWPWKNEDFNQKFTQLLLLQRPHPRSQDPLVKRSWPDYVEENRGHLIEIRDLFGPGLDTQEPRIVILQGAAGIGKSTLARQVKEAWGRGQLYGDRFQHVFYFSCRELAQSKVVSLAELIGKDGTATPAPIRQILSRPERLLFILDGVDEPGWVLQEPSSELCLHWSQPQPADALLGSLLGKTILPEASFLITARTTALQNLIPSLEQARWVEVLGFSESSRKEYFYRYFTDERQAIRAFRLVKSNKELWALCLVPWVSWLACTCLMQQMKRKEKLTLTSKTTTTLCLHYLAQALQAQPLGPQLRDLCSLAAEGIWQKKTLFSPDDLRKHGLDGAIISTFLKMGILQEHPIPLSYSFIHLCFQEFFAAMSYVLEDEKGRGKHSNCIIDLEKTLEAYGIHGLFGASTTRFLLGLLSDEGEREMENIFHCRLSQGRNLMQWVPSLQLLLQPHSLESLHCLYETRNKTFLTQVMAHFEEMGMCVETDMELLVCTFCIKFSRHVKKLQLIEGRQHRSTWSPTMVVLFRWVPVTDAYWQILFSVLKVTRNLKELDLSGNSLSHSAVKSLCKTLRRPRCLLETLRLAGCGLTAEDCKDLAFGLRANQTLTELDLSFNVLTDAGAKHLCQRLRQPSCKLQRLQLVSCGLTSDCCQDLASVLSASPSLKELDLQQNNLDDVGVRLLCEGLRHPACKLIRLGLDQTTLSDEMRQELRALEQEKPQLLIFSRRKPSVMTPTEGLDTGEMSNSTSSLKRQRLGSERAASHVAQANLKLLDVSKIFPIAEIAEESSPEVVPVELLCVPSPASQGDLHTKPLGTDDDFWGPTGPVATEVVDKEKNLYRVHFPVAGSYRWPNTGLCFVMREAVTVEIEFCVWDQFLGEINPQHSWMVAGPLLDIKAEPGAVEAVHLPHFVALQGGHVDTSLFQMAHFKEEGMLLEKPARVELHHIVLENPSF
Chain of NACHT, LRR and PYD domains-containing protein 1 (Q9C000 1213-1473 limits assumed): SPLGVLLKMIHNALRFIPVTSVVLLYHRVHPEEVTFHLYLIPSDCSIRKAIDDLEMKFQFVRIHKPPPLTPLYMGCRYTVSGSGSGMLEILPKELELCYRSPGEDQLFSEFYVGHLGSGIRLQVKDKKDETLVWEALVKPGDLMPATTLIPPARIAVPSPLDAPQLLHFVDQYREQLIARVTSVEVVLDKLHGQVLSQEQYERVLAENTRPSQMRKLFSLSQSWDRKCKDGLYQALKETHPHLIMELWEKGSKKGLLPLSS

[13] = target: C-C chemokine receptor type 6 (Homo sapiens, UniProt P51684); assay: CCR6 receptor antagonists, dose response, cell-based, luminescent beta-arrestin readout (AID 504728); format: functional
Chain of C-C chemokine receptor type 6 (P51684 whole entry): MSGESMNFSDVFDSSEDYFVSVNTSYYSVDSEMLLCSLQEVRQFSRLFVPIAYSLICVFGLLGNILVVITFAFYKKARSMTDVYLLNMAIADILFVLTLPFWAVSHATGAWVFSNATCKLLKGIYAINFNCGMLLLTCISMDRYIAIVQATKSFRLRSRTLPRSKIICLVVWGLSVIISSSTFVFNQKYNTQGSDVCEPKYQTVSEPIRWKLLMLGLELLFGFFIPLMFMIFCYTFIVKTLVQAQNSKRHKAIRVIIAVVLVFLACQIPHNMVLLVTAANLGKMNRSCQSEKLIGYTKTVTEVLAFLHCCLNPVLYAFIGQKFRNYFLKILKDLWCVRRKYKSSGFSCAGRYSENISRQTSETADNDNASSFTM

Beta-galactosidase = Beta-galactosidase (Escherichia coli, UniProt Q8VNN2); assay: beta-galactosidase enzyme inhibitors and activators, dose response, artefact control for CCR6 antagonist project, biochemical, E. coli enzyme, set 3 (AID 504712); format: functional
Chain of Beta-galactosidase (Q8VNN2 whole entry): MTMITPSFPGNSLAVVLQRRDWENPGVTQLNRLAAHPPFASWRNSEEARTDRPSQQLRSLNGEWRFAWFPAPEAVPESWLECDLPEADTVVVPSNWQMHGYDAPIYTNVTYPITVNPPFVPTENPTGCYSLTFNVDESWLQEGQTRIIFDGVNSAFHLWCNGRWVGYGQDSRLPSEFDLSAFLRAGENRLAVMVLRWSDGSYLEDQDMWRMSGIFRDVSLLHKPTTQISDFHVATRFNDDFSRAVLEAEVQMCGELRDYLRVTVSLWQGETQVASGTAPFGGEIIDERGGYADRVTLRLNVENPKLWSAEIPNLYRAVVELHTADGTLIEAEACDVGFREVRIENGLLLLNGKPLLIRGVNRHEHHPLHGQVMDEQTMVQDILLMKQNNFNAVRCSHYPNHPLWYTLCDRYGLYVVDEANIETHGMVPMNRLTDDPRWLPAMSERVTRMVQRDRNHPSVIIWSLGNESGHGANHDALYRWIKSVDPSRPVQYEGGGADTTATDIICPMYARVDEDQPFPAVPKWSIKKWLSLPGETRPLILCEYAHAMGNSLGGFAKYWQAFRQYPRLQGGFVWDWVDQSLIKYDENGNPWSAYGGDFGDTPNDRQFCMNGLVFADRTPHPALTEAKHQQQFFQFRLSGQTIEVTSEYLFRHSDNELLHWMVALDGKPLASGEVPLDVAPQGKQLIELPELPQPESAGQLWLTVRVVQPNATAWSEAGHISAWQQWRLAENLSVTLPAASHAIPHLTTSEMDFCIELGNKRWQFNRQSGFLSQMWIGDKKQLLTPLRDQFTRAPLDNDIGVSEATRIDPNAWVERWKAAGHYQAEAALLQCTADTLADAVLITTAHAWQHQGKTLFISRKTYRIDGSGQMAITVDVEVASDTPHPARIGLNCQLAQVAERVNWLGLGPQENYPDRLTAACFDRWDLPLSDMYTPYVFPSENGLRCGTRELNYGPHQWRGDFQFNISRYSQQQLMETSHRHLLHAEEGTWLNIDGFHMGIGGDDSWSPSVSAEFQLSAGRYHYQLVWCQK

**Q.** With `Cc1ccc(C(=O)c2cc([N+](=O)[O-])ccc2N2CCOCC2)c(C)c1` as the molecule, how does the EC50 (BJ [1]) read?
**A.** 14.2 µM (active)

**Q.** And the EC50 (BJ [2])?
**A.** 0.78 µM (inconclusive)

**Q.** And the IC50 [3]?
**A.** > 80 µM (inactive)

**Q.** What about the EC50 (BJ [4]) of the same molecule?
**A.** 0.764 µM (active)

**Q.** And the EC50 [5]?
**A.** 0.637 µM (active)

**Q.** And the IC50 (J774.A1)?
**A.** < 0.05 µM (inactive)

**Q.** For `Cc1ccc(N2C(=O)C3C4C=CC(CN=C(S)Nc5ccc(Cl)cc5)(O4)C3C2=O)cc1` (stereo unspecified), which IC50 [6] is on record?
**A.** 42.8 µM (not active)

**Q.** What about the AC50 [7] of the same molecule?
**A.** 25.4 µM (active)

**Q.** What about the IC50 [8] of the same molecule?
**A.** 18.9 µM (not active)

**Q.** Which EC50 [9] does the source give for `CC1(C)CC(=O)N(CC(=O)O)c2ccccc2S1` here?
**A.** > 50 µM (not active)

**Q.** With `O=C(COc1ccccc1Cl)N1CCN(c2ccc([N+](=O)[O-])c(N3CCCCC3)c2)CC1` as the molecule, how does the IC50 [10] read?
**A.** > 100 µM (inactive)

**Q.** For `O=C1/C(=C/c2cccnc2)SC(=S)N1C1CCS(=O)(=O)C1` (stereo unspecified), which EC50 [11] is on record?
**A.** 0.445 µM (active)

**Q.** What about the IC50 (Saccharomyces cerevisiae) of the same molecule?
**A.** 49.1 µM (active)

**Q.** And the IC50 [12]?
**A.** 33.8 µM (active)

**Q.** What does the source list for `CC[N+]1(C)CCC(O)(/C=C/c2ccccc2)C(C(=O)/C=C/c2ccccc2)C1` (stereo unspecified)?
**A.** IC50 [13]: 39.9 µM (inactive); IC50 (Beta-galactosidase): > 66.6 µM (inactive)
